Entries after “also recorded” stand apart in the source; their conditions may differ. Read-outs that look alike come from different tables or passages of the source.
Key:
[1] = tested on: leukocyte adhesion in the animal's mesenteric post-capillary venules; test: NSAID (indomethacin)-induced leukocyte adhesion in rat mesenteric post-capillary venules, intravital microscopy; type: in vivo; conditions: indomethacin 10 minutes later
Source text: In these studies, oral treatment of rats with the NSAID indomethacin results in leukocyte adhesion in the animal's mesenteric post-capillary venules. This can be observed and measured using the technique of Intravital microscopy.

[2] = tested on: indomethacin-induced gastric damage; test: Indomethacin-induced gastric damage model; type: in vivo; conditions: Rattus norvegicus; oral, 15 minutes before 20 mg/kg indomethacin PO; assessed at 4 hours; read-out: ED50 cytoprotection, indomethacin
Procedure: (§1) Fifteen minutes later, the animals were orally challenged with a single dose of 20 mg/kg indomethacin or 288 mg/kg aspirin. The animals were euthanized either at 4 hours (indomethacin) or 30 minutes (aspirin) later and the amount of gastric damage was assessed using image analysis.

[3] = tested on: aspirin-induced gastric damage; test: Aspirin-induced gastric damage model (aspirin erosion model); type: in vivo; conditions: Rattus norvegicus, 0.5 h
Procedure: as §1
Additional compounds of Formula I were tested in both the MAC-1 and the aspirin-induced gastric damage model (Table 1 and FIG. 4). Compounds which were active in the MAC-1 assay were also active in the gastric cytoprotective assay.

basal acid secretion = test: Shay rat model of basal acid secretion; type: in vivo; conditions: 50 or 200 mg/kg PO; pylorus ligated 1 hour later, acid content 4 hours later
Procedure: This has been tested in two different animal models. In the rat, Example 1 was tested in the Shay rat model of basal acid secretion. […] One hour later the animals were anesthetized and the pyloric sphincter to the stomach was ligated. The stomachs were removed 4 hours later and their acid content determined.

[4] = tested on: stimulated acid secretion; test: Dimaprit-stimulated gastric fistula beagle dog model; type: in vivo
Source text: All parameters of gastric secretion appeared to be practically identical to those observed in the vehicle-only controls.

[5] = tested on: gastrointestinal tissues (stomach, small and large intestines); test: Whole body autoradiography after intravenous radiolabeled Example 1; type: in vivo
Plasma protein binding = type: in vitro ADME; conditions: rat, dog, sheep, and human
[6] = tested on: human basophil histamine release; test: Human basophil histamine release stimulated with anti-IgE; type: cell-based
[7] = tested on: animal disease models (asthma, allergy, arthritis, adult respiratory distress syndrome (ARDS), and cardiac reperfusion); test: Animal disease models (asthma, allergy, arthritis, ARDS, cardiac reperfusion); type: in vivo
[8] = tested on: NSAID-induced gastric damage; test: Gastric cytoprotection in animal models (NSAID-induced gastric damage); type: in vivo; conditions: Rattus norvegicus, po; range over models
Procedure: as §1

[9] = tested on: human colonic adenocarcinoma (CaCO-2) cells
Procedure: [^14 C]Example 1 (22.9 μg/mL) was loaded on to either the apical (luminal) or basolateral (vascular) of the monolayer. Samples were obtained over 250 minutes from either side of the chamber in each experiment.

MAC-1 [10] = molecular target: T1, MAC-1 (Homo sapiens, UniProt P05107+P11215); conditions: Wright C. D., et al., Keystone symposium 1994; cited from earlier work
T1 construct: endogenous in cells

[11] = tested on: NSAID-induced gastric damage; conditions: indomethacin and aspirin in rats; Low J. E., et al., 1993; cited from earlier work
MAC-1 [12] = molecular target: T1, MAC-1; test: Inhibition of MAC-1 mediated adhesion of FMLP-stimulated neutrophils to KLH-coated plastic; type: cell-based; conditions: 1 h, read-out: increase of MAC-1 dependent adherence to KLH-coated plastic
[13] = po, Table 1, aspirin-induced gastric damage model, read-out: Gastric Cytoprotective Effect (ED50, mg/kg PO)

T1 sequence (P05107 23-769, other chains not shown): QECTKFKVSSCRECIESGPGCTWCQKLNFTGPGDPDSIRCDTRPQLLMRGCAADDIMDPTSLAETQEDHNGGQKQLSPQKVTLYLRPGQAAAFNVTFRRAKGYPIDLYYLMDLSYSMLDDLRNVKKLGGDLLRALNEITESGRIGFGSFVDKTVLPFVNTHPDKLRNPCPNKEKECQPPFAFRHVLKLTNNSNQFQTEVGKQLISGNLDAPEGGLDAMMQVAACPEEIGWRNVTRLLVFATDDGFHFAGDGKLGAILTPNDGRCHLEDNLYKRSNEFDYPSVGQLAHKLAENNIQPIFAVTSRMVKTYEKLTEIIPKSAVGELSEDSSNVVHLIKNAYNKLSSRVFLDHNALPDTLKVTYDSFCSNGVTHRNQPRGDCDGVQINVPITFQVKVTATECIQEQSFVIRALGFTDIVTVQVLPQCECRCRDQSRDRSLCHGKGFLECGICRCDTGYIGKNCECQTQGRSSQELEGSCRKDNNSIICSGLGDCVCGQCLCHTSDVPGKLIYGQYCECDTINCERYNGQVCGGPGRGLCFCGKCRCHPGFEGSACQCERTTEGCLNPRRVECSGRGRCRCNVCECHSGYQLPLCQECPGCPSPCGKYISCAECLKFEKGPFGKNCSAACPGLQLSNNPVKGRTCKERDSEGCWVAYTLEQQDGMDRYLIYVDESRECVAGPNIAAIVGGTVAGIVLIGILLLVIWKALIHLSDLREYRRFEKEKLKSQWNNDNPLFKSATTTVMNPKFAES

For COc1ccc2sc(C(=O)Nc3nnn[nH]3)c(OC(C)C)c2c1 [Example 1, 5-Methoxy-3-(1-methylethoxy)-N-1H-tetrazol-5-yl-benzo[b]thiophene-2-carboxamide], the “inhibition of indomethacin-induced leukocyte adhesion” value ([1]; 1 mg/kg PO, 40 and 70 minute time point) was “no protective effects”, the “inhibition of indomethacin-induced leukocyte adhesion” value ([1]; 5 or 10 mg/kg PO) was “complete inhibition” and the ED50 [2] was 1 mg/kg. For the same compound, the ED50 ([3]; oral, 15 minutes before 288 mg/kg aspirin PO, assessed at 30 minutes, read-out: ED50 cytoprotection, aspirin) was 0.01 mg/kg, the “effect on basal acid secretion” value (basal acid secretion) was “no effect” and the “changes in gastric secretion” value ([4]; 0.1, 1.0, or 10 mg/kg PO, dimaprit-stimulated) was “no significant changes”. For the same compound, the “time to radiolabeled material associated with gastrointestinal tissues” value ([5]; rapid) was 5 min, the “levels of radiolabeled material associated with gastrointestinal tissues” value ([5]; stomach, small and large intestines) was “high levels” and the fraction unbound (Plasma protein binding) was 0.01 to 0.02. The IC50 ([6]; Homo sapiens, anti-IgE stimulated, absence of serum) was 0.3 µM, the “inhibitory effect on human basophil histamine release in the presence of serum” value ([6]; increasing concentration of serum (5-50%)) was “significantly reduced” and the ED50 ([7]; IV) was 5 to 20 mg/kg. The ED50 ([7]; oral) was 30 to 100 mg/kg, the ED50 [8] was 0.01 to 1 mg/kg and the “amount on apical side compared to basolateral side” value [9] was “significantly more”. The “inhibition of neutrophil adhesion mediated by MAC-1” value (MAC-1 [10]) was “can inhibit neutrophil adhesion; also recorded: inhibits neutrophil adhesion” and the “gastric cytoprotective effects against damage caused by NSAIDs” value [11] was “gastric cytoprotective effects”.
Work on COc1ccc2c(OC(C)C)c(C(=O)Nc3nnn[nH]3)sc2c1 [Example 2, 6-Methoxy-3-(1-methylethoxy)-N-1H-tetrazol-5-yl-benzo[b]thiophene-2-carboxamide] yielded an ED50 [3, 13] of 1 mg/kg.
For COc1cc2sc(C(=O)Nc3nnn[nH]3)c(OC(C)C)c2cc1OC [Example 3, 5,6-Dimethoxy-3-(1-methylethoxy)-N-1H-tetrazol5-yl-benzo[b]thiophene-2-carboxamide], the ED50 [3, 13] was 1 mg/kg.
COc1cc2sc(C(=O)Nc3nnn[nH]3)c(Oc3ccccc3)c2cc1OC [Example 4, 5,6-Dimethoxy-3-phenoxy-N-1H-tetrazol-5-yl-benzo[b]thiophene-2-carboxamide] gave an ED50 [3, 13] of 0.01 mg/kg.
In the case of CSCC[C@H](NC=O)C(=O)N[C@@H](CC(C)C)C(=O)N[C@@H](Cc1ccccc1)C(=O)O [N-formyl-methionyl-leucyl-phenylalanine], the activation at 0.01 µM (MAC-1 [12]) is reported as 49%.
For CN(C)CCCSC(=N)N [dimaprit], the “gastric secretion pH” value ([4]; constant intravenous 0.2 mg/kg hr) was 1.0.
With CNC(=C[N+](=O)[O-])NCCSCc1ccc(CN(C)C)o1 [ranitidine] the “increase in gastric pH” value ([4]; 1.5 mg/kg PO, dimaprit 0.2 mg/kg hr IV) was 4 units.
